49 compounds from US9315494B2, “Alkyl-amide-substituted pyridyl compounds useful as modulators of IL-12, IL-23 and/or IFNα responses” (Bristol-Myers Squibb Company, priority 2012, dated 2016) can be followed below.

pIC50: −log10 of the molar value.

Assay [1] relates to IL-23-stimulated STAT-dependent luciferase reporter in Kit225 T cells. The assay can be described thus: Kit225 T cell assay, IL-23 stimulated STAT-dependent luciferase reporter. Conditions: Kit225 T cells, 20 ng/mL human recombinant IL-23, 5-6 hours, luciferase; read-out: IL23 (Kit225 T Cell Inhibition Data). The assay is classed as cell-based, human. The essentials:
(§1)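 Kit225 T cells carrying a stably integrated STAT-luciferase reporter, in RPMI with 10% heat-inactivated FBS, were stimulated with 20 ng/mL IL-23 or 200 U/mL IFNα for 5-6 h. Readout was luminescence from the luciferase reporter.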
For orientation: A reporter such as luciferase makes a cellular process visible.

For assay [2], the system named is IFNα-stimulated STAT-dependent luciferase reporter in Kit225 T cells. The assay can be described thus: Kit225 T cell assay, IFNα stimulated STAT-dependent luciferase reporter. The assay is classed as cell-based, human. Conditions: Kit225 T cells, 200 U/mL human recombinant IFNα, 5-6 hours, luciferase; read-out: IFNα (Kit225 T Cell Inhibition Data). The essentials: as §1

Take `CNC(=O)c1cnc(Nc2cc(C)c(F)cn2)cc1Nc1cccc(-c2ncn(C)n2)c1OC(F)F` [Example 388]: the values for the pIC50 in assay [1] and in assay [2] were 7.30 and 7.70, respectively.

As for `CNC(=O)c1cnc(Nc2cc(C)c(F)cn2)cc1Nc1cccc(-c2nnn[nH]2)c1OC` [Example 390], the results for the pIC50 in assay [1] and in assay [2] were 5.99 and 6.48, respectively.

For `CNC(=O)c1cnc(Nc2cc(C)c(F)cn2)cc1Nc1cccc(-c2ccnn2C)c1OC` [Example 392], the pIC50 in assay [1] was 6.77; in assay [2] it was 7.15.

As to `CNC(=O)c1cnc(Nc2cc(C)nc(C)n2)cc1Nc1cccc(-c2ccnn2C)c1OC` [Example 394], the pIC50 in assay [1] was 7.10; in assay [2] it was 7.52.

As to `[2H]C([2H])([2H])NC(=O)c1cnc(Nc2cc(C)nc(C)n2)cc1Nc1cccc(-c2cnn(C)c2)c1OC` [Example 397], the pIC50 was 7.22 in assay [1] and 8.06 in assay [2].

`[2H]C([2H])([2H])NC(=O)c1cnc(Nc2ccccn2)cc1Nc1cccc(-c2cnn(C)c2)c1OC` [Example 398]: the pIC50 in assay [1] and in assay [2] was 7.70 each time.

In the case of `[2H]C([2H])([2H])NC(=O)c1cnc(Nc2cc(C)c(F)cn2)cc1Nc1cccc(-c2cnn(C)c2)c1OC` [Example 399], the pIC50 in assay [1] and in assay [2] was 7.30 throughout.

As to `CCc1cc(C#N)ccc1Nc1cc(Nc2cc(C)nc(C)n2)ncc1C(=O)NC` [Example 401], the pIC50 in assay [1] was 6.32; in assay [2], 6.36.

For the compound `CCc1ncccc1Nc1cc(Nc2cc(C)nc(C)n2)ncc1C(=O)NC` [Example 402], the results for the pIC50 in assay [1] and in assay [2] were 6.60 and 6.48, respectively.

On to `CNC(=O)c1cnc(Nc2cc(NC)nc(C)n2)cc1Nc1cccnc1OC` [Example 403], for which the pIC50 in assay [1] is 6.62; in assay [2], 6.54.

`[2H]C([2H])([2H])NC(=O)c1cnc(Nc2cc(C)nc(C)n2)cc1Nc1cccc(-c2csc(C)n2)c1OC` [Example 404, 6-((2,6-dimethylpyrimidin-4-yl)amino)-4-((2-methoxy-3-(2-methylthiazol-4-yl)phenyl)amino)-N-trideuteromethylnicotinamide]: the results for the pIC50 in assay [1] and in assay [2] were 8.36 and 8.06, respectively.

For `[2H]C([2H])([2H])NC(=O)c1cnc(Nc2cc(CO)ccn2)cc1Nc1cccc(-c2csc(C)n2)c1OC` [Example 405], the pIC50 in assay [1] is 7.70; in assay [2] it was 8.00.

Turning to `CNC(=O)c1cnc(Nc2ccc(N3CCOCC3)cn2)cc1Nc1cc(F)cc(F)c1OC` [Example 406], the pIC50 in assay [1] was 6.60; in assay [2] it was 7.00.

For the compound `CNC(=O)c1cnc(Nc2ccn(C)n2)cc1Nc1cc(F)cc(F)c1OC` [Example 407], the pIC50 in assay [1] and in assay [2] was 7.05 each time.

On to `CNC(=O)c1cnc(Nc2ccn(C(C)C)n2)cc1Nc1cc(F)cc(F)c1OC` [Example 408], for which the pIC50 in assay [1] was 6.17; in assay [2] it was 6.37.

As to `CNC(=O)c1cnc(Nc2cc(C)nc(C)n2)cc1Nc1cccc(F)c1OC` [Example 410], the pIC50 in assay [1] is 7.70; in assay [2], 8.06.

For `CNC(=O)c1cnc(Nc2cc(C)c(F)cn2)cc1Nc1ccc(C(=O)N2CCCC2)cc1S(C)(=O)=O` [Example 411], the pIC50 in assay [1] was 6.43; in assay [2] it was 6.68.

On to `CNC(=O)c1cnc(Nc2cc(C)c(F)cn2)cc1Nc1ccc(C(=O)N(C)C)cc1S(C)(=O)=O` [Example 412], for which the pIC50 in assay [1] was 6.35; in assay [2] it was 6.62.

Turning to `CNC(=O)c1cnc(Nc2cc(C)c(F)cn2)cc1Nc1ccc(C(=O)N2CC(F)(F)C2)cc1S(C)(=O)=O` [Example 413], the values for the pIC50 in assay [1] and in assay [2] were 6.33 and 6.34, respectively.

On to `CNC(=O)c1cnc(Nc2ccc(C)nn2)cc1Nc1ccccc1S(C)(=O)=O` [Example 414], for which the pIC50 was 6.19 in assay [1] and 6.55 in assay [2].

Take `CNC(=O)c1cnc(Nc2cc(C)c(C)nn2)cc1Nc1ccccc1S(C)(=O)=O` [Example 415]: the pIC50 in assay [1] is 6.49; in assay [2] it was 6.68.

Regarding `CNC(=O)c1cnc(Nc2cnc(C)c(C)n2)cc1Nc1ccccc1S(C)(=O)=O` [Example 416], the values for the pIC50 in assay [1] and in assay [2] were 7.05 and 7.10, respectively.

Turning to `CNC(=O)c1cnc(Nc2ccc3cnccc3n2)cc1Nc1ccccc1S(C)(=O)=O` [Example 417], the pIC50 was 6.59 in assay [1] and 6.48 in assay [2].

In the case of `CNC(=O)c1cnc(Nc2cc(COC)nc(C)n2)cc1Nc1ccccc1S(C)(=O)=O` [Example 418], the pIC50 is 6.46 in assay [1] and 6.68 in assay [2].

In the case of `CNC(=O)c1cnc(Nc2cc(OC)ncn2)cc1Nc1ccccc1S(C)(=O)=O` [Example 419], the pIC50 is 6.77 in assay [1] and 6.46 in assay [2].

Consider `CNC(=O)c1cnc(Nc2cc(C(C)(C)C)ncn2)cc1Nc1ccccc1S(C)(=O)=O` [Example 421], for which the values for the pIC50 in assay [1] and in assay [2] were 6.34 and 6.32, respectively.

Turning to `CCN(CC)CCCNc1cc(Nc2cc(Nc3ccccc3S(C)(=O)=O)c(C(=O)NC)cn2)nc(C)n1` [Example 423], the values for the pIC50 in assay [1] and in assay [2] were 6.42 and 6.43, respectively.

With `CNC(=O)c1cnc(Nc2cc(NCc3ccccc3)ncn2)cc1Nc1ccccc1S(C)(=O)=O` [Example 424], the pIC50 is 6.31 in assay [1] and 6.34 in assay [2].

Consider `CNC(=O)c1cnc(Nc2cc(N(C)Cc3ccccc3)ncn2)cc1Nc1ccccc1S(C)(=O)=O` [Example 425], for which the results for the pIC50 in assay [1] and in assay [2] were 6.17 and 6.42, respectively.

Turning to `CNC(=O)c1cnc(Nc2cc(F)ccn2)cc1Nc1ccccc1NS(C)(=O)=O` [Example 427], the pIC50 in assay [1] was 6.85; in assay [2] it was 6.82.

With `CNC(=O)c1cnc(Nc2ccccn2)cc1Nc1ccccc1NS(C)(=O)=O` [Example 428], the figures for the pIC50 in assay [1] and in assay [2] were 7.05 and 6.96, respectively.

Turning to `CNC(=O)c1cnc(Nc2ccc(F)cn2)cc1Nc1ccccc1S(N)(=O)=O` [Example 429], the pIC50 in assay [1] is 6.60; in assay [2] it was 6.82.

In the case of `CNC(=O)c1cnc(Nc2ccccn2)cc1Nc1ccccc1S(N)(=O)=O` [Example 430], the pIC50 was 6.80 in assay [1] and 7.30 in assay [2].

Regarding `CNC(=O)c1cnc(Nc2cc(C)c(F)cn2)cc1Nc1ccccc1S(N)(=O)=O` [Example 431], the pIC50 is 7.40 in assay [1] and 7.10 in assay [2].

For the compound `CNC(=O)c1cnc(Nc2cc(C)c(F)cn2)cc1Nc1ccccc1S(C)(=O)=O` [Example 432], the pIC50 in assay [1] is 7.52; in assay [2], 7.70.

Regarding `CNC(=O)c1cnc(Nc2cnc(OC)cn2)cc1Nc1ccccc1S(C)(=O)=O` [Example 433], the pIC50 was 6.54 in assay [1] and 6.66 in assay [2].

As to `CNC(=O)c1cnc(Nc2ccc(OC)cn2)cc1Nc1ccccc1S(C)(=O)=O` [Example 434], the pIC50 in assay [1] is 7.00; in assay [2] it was 7.30.

For `CNC(=O)c1cnc(Nc2ccc(N3CCCCC3)cn2)cc1Nc1ccccc1S(C)(=O)=O` [Example 435], the pIC50 in assay [1] was 7.52; in assay [2], 7.30.

On to `CNC(=O)c1cnc(Nc2ccc(N3CCC(C)(O)CC3)cn2)cc1Nc1ccccc1S(C)(=O)=O` [Example 436], for which the values for the pIC50 in assay [1] and in assay [2] were 6.62 and 6.92, respectively.

As to `CNC(=O)c1cnc(Nc2ccn(C)n2)cc1Nc1ccccc1S(C)(=O)=O` [Example 437], the pIC50 is 6.44 in assay [1] and 6.72 in assay [2].

With `CNC(=O)c1cnc(Nc2cc(C)n(C)n2)cc1Nc1ccccc1S(C)(=O)=O` [Example 439], the pIC50 in assay [1] is 6.68; in assay [2], 6.96.

Turning to `CNC(=O)c1cnc(Nc2ccc(C#N)c(C)n2)cc1Nc1ccccc1S(C)(=O)=O` [Example 440], the pIC50 is 6.60 in assay [1] and 6.59 in assay [2].

As for `CNC(=O)c1cnc(Nc2ccc(N3CCCC3=O)cn2)cc1Nc1ccccc1S(C)(=O)=O` [Example 441], the pIC50 in assay [1] was 6.34; in assay [2], 6.62.

As to `CNC(=O)c1cnc(Nc2ccn(C(C)C)n2)cc1Nc1ccccc1S(C)(=O)=O` [Example 442], the pIC50 was 6.35 in assay [1] and 6.89 in assay [2].

In the case of `CNC(=O)c1cnc(Nc2cc(C)cc(C)n2)cc1Nc1ccccc1S(C)(=O)=O` [Example 443], the pIC50 in assay [1] was 7.30; in assay [2], 7.70.

In the case of `CCOc1ccc(Nc2cc(Nc3ccccc3S(C)(=O)=O)c(C(=O)NC)cn2)nn1` [Example 444], the results for the pIC50 in assay [1] and in assay [2] were 6.60 and 6.74, respectively.

For the compound `CNC(=O)c1cnc(Nc2cc(C3CCC3)[nH]n2)cc1Nc1ccccc1S(C)(=O)=O` [Example 445], the pIC50 in assay [1] was 6.28; in assay [2], 6.49.

In the case of `CNC(=O)c1cnc(Nc2ccn(-c3ccc(Cl)cc3)n2)cc1Nc1ccccc1S(C)(=O)=O` [Example 446], the pIC50 in assay [1] was 6.82; in assay [2] it was 6.74.

As for `CNC(=O)c1cnc(Nc2cc(C)c(C#N)cn2)cc1Nc1ccccc1S(C)(=O)=O` [Example 447], the results for the pIC50 in assay [1] and in assay [2] were 6.70 and 6.80, respectively.
